Laboratory results as given in article PMC11969438 (Inorganic Chemistry Frontiers, 2025).
Entries after “also recorded” stand apart in the source; their conditions may differ. Read-outs that look alike come from different tables or passages of the source.

Key:
[1] = Hematological analysis 24 h after the second dose; conditions: two i.v. doses equimolar to 9 mg kg^−1 oxaliplatin, 24 h after second dose
Procedure: (§1) Mice were kept in groups of four per cage with sterilized paper-based environmental enrichment and food and water ad libitum, under pathogen-free conditions and a controlled environment with a 12 h light–dark cycle. Syngeneic models of colorectal carcinoma were generated via subcutaneous injection of CT-26 cells (0.5 × 10^6 cells in 50 μL of serum-free RPMI-1640 medium) into the right flank of 8–12 weeks old BALB/c mice. […] All animals were euthanized 24 h after the second dose. […] To determine the anticancer efficacy of the investigated compounds, treatment started 4 d after tumor implantation, when all tumors were measurable (>25 mm^3) using a twice-weekly treatment scheme for two weeks. Tumor size was determined daily via manual caliper measurement. The tumor volume was calculated as tumor volume = (length × diameter × diameter)/2. The overall condition, shape, and activity of the animals were assessed daily. Peripheral blood was collected from the submandibular vein in K3E K3EDTA tubes (Greiner Bio-One; Kremsmünster, AUT) on ice and was analyzed for hematological parameters (red blood cells (RBCs), hemoglobin (HGB), hematocrit (HCT), red cell distribution width (RDW), mean corpuscular volume (MCV), white blood cells (WBCs), lymphocytes (LYM), monocytes (MO), granulocytes (GRA), and platelets (PLT) using a Vet ABC hematology analyzer (scil Animal Care GmbH, Viernheim, Germany). EDTA-blood was centrifuged (900g, 10 min) twice and the supernatant (EDTA-plasma) was stored at −20 °C for subsequent cytokine/chemokine analysis using a Luminex detection platform. All animal experiments were performed with humane endpoints based on Federation of European Laboratory Animal Science Associations guidelines and according to the regulations of the Ethics Committee for the Care and Use of Laboratory Animals at the Medical University Vienna (proposal number BMBWF 2023–0.122.324). Animals were euthanized upon reaching a tumor volume of >1500 mm^3, a loss in body weight (>20%), tumor ulceration or other indications of deteriorated health. Animals were euthanized via cervical dislocation.

[2] = Cytokine and chemokine levels in plasma of treated animals, Luminex; type: in vivo, CT-26-bearing BALB/c mice; conditions: 24 h after second dose
Procedure: Next, the ProcartaPlex (96-well) multiplex assay panel was performed according to the manufacturer's recommendations. In brief, the capture bead mix was incubated with test samples (undiluted SN or mouse plasma) or standard mix overnight. The SN of three independent experiments or the plasma of four animals per treatment group was loaded onto the multiplex assay plate. Next, biotinylated detection antibody mix and Streptavidin-PE were added to the plate. Following the recommended washing steps, the samples were incubated in a reading buffer and were measured using a Luminex xMAP platform (Bio-Plex MAGPIX Multiplex Reader; Bio-Rad Laboratories) and analyzed using xPONENT software.
(§2) Tumor size was determined daily via manual caliper measurement. […] Animals were euthanized via cervical dislocation.

albumin = target: T1, albumin (Bos taurus, UniProt P02769); assay: Albumin binding in fetal calf serum, SEC-ICP-MS; type: in vitro ADME; conditions: 50 μM in FCS
T1 construct: Serum proteins have a retention span of ∼2–4 min as part of the high-molecular weight fraction with albumin at ∼4 min; tissue Sigma-Aldrich; host or cells: fetal calf serum (whole serum, buffered with 150 mM phosphate buffer pH 7.4)
T1 sequence (P02769 25-607): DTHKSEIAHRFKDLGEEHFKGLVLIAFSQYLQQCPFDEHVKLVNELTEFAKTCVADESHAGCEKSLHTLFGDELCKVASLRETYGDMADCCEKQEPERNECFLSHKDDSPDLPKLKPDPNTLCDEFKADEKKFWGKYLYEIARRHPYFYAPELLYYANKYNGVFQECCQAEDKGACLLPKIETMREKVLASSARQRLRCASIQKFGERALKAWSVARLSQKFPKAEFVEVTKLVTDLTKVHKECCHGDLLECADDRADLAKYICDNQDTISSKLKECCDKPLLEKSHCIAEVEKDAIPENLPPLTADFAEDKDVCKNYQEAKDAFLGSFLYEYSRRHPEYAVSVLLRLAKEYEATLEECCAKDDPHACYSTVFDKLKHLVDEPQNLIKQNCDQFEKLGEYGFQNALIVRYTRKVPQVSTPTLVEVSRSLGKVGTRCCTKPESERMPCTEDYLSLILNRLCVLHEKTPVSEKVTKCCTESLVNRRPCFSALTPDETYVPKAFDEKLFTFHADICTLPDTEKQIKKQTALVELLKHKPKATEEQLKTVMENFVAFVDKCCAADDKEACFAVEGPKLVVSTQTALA
Procedure: FCS was purchased from Sigma-Aldrich and buffered with 150 mM PB pH 7.4 to guarantee a stable pH. The platinum(IV) complexes were dissolved in 150 mM PB (pH 7.4) at a concentration of 5 mM and diluted 1 : 100 in the buffered serum to obtain a final concentration of 50 μM. The samples were then incubated in an autosampler at 37 °C and analyzed for 24 h. Between each sample, a pure water blank was measured. For SEC-ICP-MS measurements an Agilent 1260 Infinity system coupled to an Agilent 7800 ICP-MS equipped with a dynamic reaction cell was used. Oxygen (purity 5.5, Messer Austria GmbH, Gumpoldskirchen, Austria) was used as a reaction gas.

[3] = Hematological analysis after long-term treatment; conditions: 72 h after the fourth dose
Procedure: as §1

[4] = tested on: immune cell populations in tumor and spleen; assay: Immune activation and infiltration by flow cytometry; type: in vivo, CT-26-bearing BALB/c mice; conditions: 24 h after second dose
Procedure: as §2
The generation and treatment of tumor-bearing mice are outlined in the section “In vivo syngraft experiments” above. Samples were kept on ice during the whole procedure. Tissues were prepared as described previously.[55] In brief, tumor and spleen tissues were collected and mechanically dissociated in DPBS buffer containing Ca^2+/Mg^2+ and FCS (5%). Tumor samples were digested using collagenase VIII (1 mg mL^−1) in a DPBS buffer (without Ca^2+/Mg^2+) supplemented with DNAse I (1 mg mL^−1) for 15 min at 37 °C under constant shaking. Samples were filtered using 70 μm cell strainers in a DPBS buffer (without Ca^2+/Mg^2+) containing FCS (5%), EDTA (5 mM) and DNase I (20 μg mL^−1). Subsequent washing steps were performed in DPBS buffer (without Ca^2+/Mg^2+) containing FCS (5%), EDTA (5 mM) and DNase I (20 μg mL^−1), unless indicated otherwise. Red blood cells were removed by short incubation with ACK buffer. For blocking, samples were incubated with the Ultra-LEAF purified anti-mouse CD16/CD32 antibody (clone: 93; #101330; RRID:AB_2783037; dilution: 1 : 1000) (Biolegend, San Diego, CA, USA) in the BD Horizon Brilliant Stain Buffer (#563794; BD Biosciences) for 10 min. Next, the samples were incubated with an antibody mixture in the BD Horizon Brilliant Stain Buffer for 30 min. Fluorescent dye-labeled antibodies targeting murine CD3 (17A2; #100203; RRID:AB_312661; 1 : 50), CD8a (53-6.7; #100738; RRID:AB_11204079; 1 : 160), CD19 (6D5; #115528; RRID:AB_493735; 1 : 400), CD49b (DX5; #108924; RRID:AB_2565271; 1 : 229), CD11b (M1/70; #101228; RRID:AB_893232; 1 : 80), and CD69 (H1.2F3; # 104512; RRID:AB_493564; 1 : 40) were purchased from BioLegend. The antibody targeting murine CD4 (RM4-5; # 85-0042-U100; 1 : 80) and the viability dye Ghost Dye Red 780 (#13-0865-T100; 1 : 1000) were purchased from Tonbobio (San Diego, CA, USA). The antibody targeting CD45 (30-F11; #363-0451-82; RRID:AB_2925264; 1 : 80) was purchased from Life Tech (Invitrogen). For intracellular staining of granzyme B (GzmB) (QA16A02; #372208; RRID:AB_2687032; 1 : 20) and FoxP3 (MF-14; #320014; RRID:AB_439750; 1 : 100) the True-Nuclear Transcription Factor Buffer Set (Biolegend; #424401) was used according to the manufacturer's recommendations. In brief, samples were incubated with Perm Fix Solution for 60 min at RT. Next, the samples were stained with antibodies targeting GzmB and FoxP3 (diluted in Perm buffer) for 30 min at RT. […] Next day, the samples were analyzed using a Cytek Aurora 5L (Cytek Biosciences, CA, USA) spectral flow cytometer. Data were analyzed using SpectroFlo (v3.2.1) (Cytek Biosciences) and FlowJo (v10.8.1) (FlowJo LLC, Ashland, OR, USA) software.

[5] = Platinum distribution study in vivo by ICP-MS; set-up: species or system CT-26 tumor-bearing BALB/c mice; conditions: i.v., 24 h after second dose
Procedure: as §2
The generation and treatment of tumor-bearing mice are outlined in the section “In vivo syngraft experiments” described above. Mouse tissues were processed as described previously.[13] Briefly, serum was isolated from peripheral blood by centrifugation (900g, 10 min, 4 °C, twice). Tissues were digested in 20% nitric acid and hydrogen peroxide using an open-vessel graphite digestion system. The platinum concentration was determined by ICP-MS analysis; for details see “Intracellular platinum accumulation in vitro by ICP-MS”.

CT-26 tumors = assay: Anticancer efficacy in vivo, syngeneic colorectal carcinoma; set-up: species or system BALB/c mice; conditions: i.v. twice a week for two weeks, equimolar to 9 mg kg^−1 oxaliplatin
Procedure: as §2

[6] = tested on: NF-κB pathway (STING-dependent); assay: NF-κB-inducible SEAP reporter in THP1-Dual reporter cell model; type: cell-based, human
Excerpt: (§3) The THP1-Dual™ reporter cell model for simultaneously monitoring the activity of the IRF and NF-κB pathway contains an IRF-inducible luciferase reporter under the control of an ISG54 minimal promoter in conjunction with five interferon (IFN)-stimulated response elements, and an induced SEAP driven by an IFN-β minimal promoter fused to five copies of the NF-κB consensus transcriptional response element and three copies of the c-Rel binding site. The luciferase and SEAP reporter are measurable in the cell culture supernatant using QUANTI-Luc™ 4 Lucia/Gaussia (InvivoGen) and QUANTI-Blue™ (InvivoGen) solution, respectively. Cells were seeded at 1 × 10^5 cells per well in 96-well plates in RPMI-1640 medium, supplemented with 10% FCS, L-glutamine and Pen-Strep. After 2 h of recovery, the compounds were applied at the concentrations indicated in triplicate. The cell culture supernatant (SN) was collected after 24 h of drug incubation and secreted luciferase and SEAP reporter levels were measured according to the manufacturer's recommendations. In brief, for the detection of luciferase, 20 μL of SN were transferred into 96-well white opaque plates, and 30 μL of QUANTI-Luc™ reagent were added per well using an injector module in a multimode microplate reader (Tecan Spark, Zurich, Switzerland). Luminescence was recorded at a reading time of 0.1 second. For the detection of SEAP, 10 μL of SN were transferred to 96-well plates and 90 μL of QUANTI-Blue™ were added per well. Absorbance was measured at 620 nm. Half-maximal effective concentrations (EC50 values) were derived via interpolation from dose–response curves, modeled with the four-parameter logistic (4PL) nonlinear regression model in GraphPad Prism. For comparison, the maximal response rate of the prodrug was depicted in the percent of the maximal response rate achieved by SR-717 or MSA-2 (%EMAX) at the respective concentrations tested. Activatability, tested in co-incubation experiments with AA (50 μM), was expressed as the area under the curve (AUC) ratio of +AA vs. −AA-treated cells. The STING-dependency of the reporter induction was tested by co-administration of the STING inhibitor H-151 (10 μM), added to the cell culture medium 2 h before applying the investigated compounds. In addition to monitoring secreted reporter levels, the cell viability of the reporter cells was determined after 24 h of drug treatment by an MTT-based cell viability assay.

[7] = tested on: IRF pathway (STING-dependent); set-up: method as in PMID 32820126; conditions: read-out: IRF EC50, previous report; cited from earlier work
[8] = tested on: THP1-Dual, HCT116, HCT116/OxR and CT-26 cells; assay: MTT-based cell viability assay, 72 h, statements over all investigated cell lines; set-up: species or system human and murine; conditions: none of the investigated cell lines vulnerable, read-out: IC50 of free single agent
Procedure: Cell models were seeded (2–2.5 × 10^3 cells per well) in 96-well plates. After 24 h of recovery, the compounds were applied at the concentrations indicated in triplicate. Cell viability was determined after 72 h of continuous drug incubation using an MTT-based cell viability assay (EZ4U, Biomedica, Vienna, Austria) according to the manufacturer's recommendations. Absorbance was measured at 450 nm (vs. 620 nm as reference) using a multimode microplate reader (Tecan Spark, Zurich, Switzerland). Half-maximal inhibitory concentrations (IC50 values) were derived via interpolation from dose–response curves, modeled with the four-parameter logistic (4PL) nonlinear regression model in GraphPad Prism (La Jolla, CA, USA) from at least three independent experiments.

[9] = tested on: IRF pathway (STING-dependent); assay: IRF-inducible luciferase reporter in THP1-Dual reporter cell model; type: cell-based, human
Excerpt: as §3

[10] = two doses, vs Ox-MSA-PEG-Ca or oxaliplatin
[11] = 24 h, maximal response relative to SR-717
[12] = 24 h exposure, normalized to cell viability, oxaliplatin in combinations 5 μM

Structure (SMILES): COc1cc2cc(C(=O)CCC(=O)[O][Pt-2]34([O]C(=O)NCCOCCOCCOCCOCCN5C(=O)C=CC5=O)([NH2+][C@@H]5CCCC[C@H]5[NH2+]3)[O]C(=O)C(=O)[O]4)sc2cc1OC [Ox-MSA-Mal, (OC-6-34)-[(1R,2R)-1,2-cyclohexanediamino]-oxalato-[4-(5,6-dimethoxybenzo[b]thiophen-2-yl)-4-oxobutylcarboxylato]-[(14-(2,5-dioxo-2,5-dihydro-1H-pyrrol-1-yl)-3,6,9,12-tetraoxatetradecyl)carbamato]platinum(IV)]
- anemia [1]: not
- plasma chemokines CXCL9 and CXCL11 [2]: most strongly activated
- platinum bound to albumin (albumin; 150 mM PB pH 7.4, 37 °C, 0 h time point): approximately 99%
- stability of albumin drug conjugate (albumin; 37 °C, no release of platinum from the protein): stable over 24 h
- RBC toxicity [3]: strongly reduced
- platelet counts (PLT) / thrombocytopenia [3]: not evident
- absolute counts of white blood cells and subpopulations ([3]; i.v. twice a week for two weeks): induced an increase
- FoxP3+ CD4+ T cell compartment in the spleen [4]: selectively elevated
- liver platinum level relative to tumor ([5]; two doses equimolar to 9 mg kg^−1 oxaliplatin): 1.4 fold
- platinum accumulation in peripheral blood cells [5, 10]: clearly lowered accumulation
- platinum levels in serum and tumor [5, 10]: distinctly elevated platinum levels
- tumor growth (CT-26 tumors): distinctly stronger anticancer efficacy; also recorded: significantly inhibited colorectal tumor growth

Structure (SMILES): O=C(Nc1cc(F)c(F)cc1C(=O)[O-])c1ccc(-n2ccnc2)nn1.[Li+] [SR-717]
- NF-κB EC50 ratio fold SR-717 ([6]; 24 h): 1.0 fold
- activation of NF-κB signaling pathway ([6]; 24 h): robustly activated
- NF-κB %EMAX of SR-717 [6, 11]: 100%
- EC50 [6, 12]: 5800 nM
- EC50 [7]: 2100 nM
- IC50 [8]: > 75000 nM
- IRF EC50 ratio fold SR-717 ([9]; 24 h): 1.0 fold
- activation of IRF signaling pathway ([9]; 24 h): robustly activated
- IRF %EMAX of SR-717 [9, 11]: 100%
- EC50 [9, 12]: 2900 nM
- impact of reducing conditions on IRF-induced reporter signal (AUC ratio +AA/−AA) ([9]; AA 50 μM): no notable modulation
